Each compound was assayed against T1, CRTh2 receptor (Homo sapiens, UniProt Q9Y5Y4) (assay: CRTh2 GTPγS antagonism binding assay). Settings: membranes from CHO.K1 cells stably overexpressing the CRTh2 receptor; [35S]-GTPγS 0.1 nM; PGD2 at 50 nM (EC80); IC50 per method; read-out: GTPγ Binding.
T1 construct: expressed in transfected cells; host or cells: CHO.K1 cells (membranes)
T1 sequence (Q9Y5Y4 1-395): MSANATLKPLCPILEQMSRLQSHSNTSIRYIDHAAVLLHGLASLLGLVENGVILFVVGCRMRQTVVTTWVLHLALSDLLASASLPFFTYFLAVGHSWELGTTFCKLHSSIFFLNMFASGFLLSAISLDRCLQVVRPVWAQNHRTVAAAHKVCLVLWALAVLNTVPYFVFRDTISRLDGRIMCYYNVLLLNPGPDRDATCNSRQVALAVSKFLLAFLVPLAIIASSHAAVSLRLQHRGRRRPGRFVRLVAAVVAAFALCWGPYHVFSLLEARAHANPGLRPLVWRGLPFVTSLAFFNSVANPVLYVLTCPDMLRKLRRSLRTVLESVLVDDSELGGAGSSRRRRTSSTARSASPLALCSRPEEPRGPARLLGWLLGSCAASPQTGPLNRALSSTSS
Type: biochemical
Procedure: CRTh2 GTPγS antagonism bending assay
The assay is performed using membranes obtained from CHO.K1 cells stably overexpressing the CRTh2 receptor and [^35S]-GTPγS as radioligand. Assay is performed pre-incubating 4-8 µg of membranes per well with the compound to be tested for 1h, followed by incubation with PGD2 at 50 nM (EC80), 0.1 nM [^35S]-GTPγS in incubation buffer (20 mM Herpes, 10 mM MgCl2, 100 mM NaCl, 10 µM GDP, 10 µg/ml Saponine and 0.2% BSA) for 2 h at room temperature. The reaction is terminated by filtering in GF/C plates pre-treated with 20 mM HEPES, 10 mM MgCl2, 100 mM NaCl and washing 6 times with wash buffer (20 mM NaH2PO4, 20 mM Na2HPO4). After washing, plates are dried and scintillation buffer Optiphase added. The radioactivity retained in the filter is counted using a Microbeta liquid scintillation counter. Compound IC50 are determined using Excel XL-fit for calculations.

SMILES | IC50 [nM]
CCN(Cc1cc(C(F)(F)F)ccc1-c1nn(CC(=O)O)c2ccccc12)C(=O)C1CC1 [Example 1, {3-[2-{[(Cyclopropylcarbonyl)(ethyl)amino]methyl]-4-(trifluoromethyl)phenyl]-1H-indazol-1-yl}acetic acid] | 18
CCN(Cc1cc(C(F)(F)F)ccc1-c1nn(CC(=O)O)c2cccc(Cl)c12)C(=O)C1CC1 [Example 2, {4-Chloro-3-[2-{[(cyccopropylcarbonyl)(ethyl)amino]methyl}-4-(trifluoromethyl)phenyl]-1H-indazol-1-yl}acetic acid] | 6
CCN(Cc1cc(C(F)(F)F)ccc1-c1nn(CC(=O)O)c2ccc(F)cc12)C(=O)C1CC1 [Example 3, {3-[2-{[(Cyclopropylcarbonyl)(ethyl)amino]methyl}-4-(trifluoromethyl)phenyl]-5-fluoro-1H-indazol-1-yl}acetic acid] | 15
CCN(Cc1cc(F)ccc1-c1nn(CC(=O)O)c2cccc(Cl)c12)C(=O)C1CC1 [Example 4, [4-Chloro-3-(2-{[(cyclopropylcarbonyl)(ethyl)amino]methyl}-4-fluorophenyl)-1H-indazol-1-yl]acetic acid] | 9
CCN(Cc1cc(C(F)(F)F)ccc1-c1nn(CC(=O)O)c2ccc(Cl)cc12)C(=O)C1CC1 [Example 5] | 16
CCN(Cc1cc(F)ccc1-c1nn(CC(=O)O)c2ccc(C(F)(F)F)cc12)C(=O)C1CC1 [Example 8, [3-(2-{[(Cyclopropylcarbonyl)(ethyl)amino]methyl}-4-fluorophenyl)-5-(trifluoromethyl)-1H-indazol-1-yl]acetic acid] | 7
CCN(Cc1cc(C(F)(F)F)ccc1-c1nn(C(C)C(=O)O)c2cccc(Cl)c12)C(=O)C1CC1 (stereo not drawn) [Example 9, 2-{4-Chloro-3-[2-{[(cyclopropylcarbonyl)(ethyl)amino]methyl}-4-(trifluoromethyl)phenyl]-1H-indazol-1-yl}propanoic acid] | 13
CCN(Cc1cc(F)ccc1-c1nn(CC(=O)O)c2ccc(Cl)cc12)C(=O)C1CC1 [Example 11, [5-Chloro-3-(2-{[(cyclopropylcarbonyl)(ethyl)amino]methyl}-4-fluorophenyl)-1H-indazol-1-yl]acetic acid] | 6
CCN(Cc1cc(C(F)(F)F)ccc1-c1nn(CC(=O)O)c2cccc(F)c12)C(=O)C1CC1 [Example 14, {3-[2-{[(Cyclopropylcarbonyl)(ethyl)amino]methyl}-4-(trifluoromethyl)phenyl]-4-fluoro-1H-indazol-1-yl}acetic acid] | 4
CCN(Cc1cc(C(F)(F)F)ccc1-c1nn(CC(=O)O)c2ccc(C)cc12)C(=O)C1CC1 [Example 15, {3-[2-{[(Cyclopropylcarbonyl)(ethyl)amino]methyl}-4-(trifluoromethyl)phenyl]-5-methyl-1H-indazol-1-yl}acetic acid] | 8
CCN(Cc1cc(C(F)(F)F)ccc1-c1nn(CC(=O)O)c2cccc(C)c12)C(=O)C1CC1 [Example 16, {3-[2-{[(Cyclopropylcarbonyl)(ethyl)ammo]methyl}-4-(trifluoromethyl)phenyl]-4-methyl-1H-indazol-1-yl}acetic acid] | 17
CCN(Cc1cc(C(F)(F)F)ccc1-c1nn(CC(=O)O)c2ccc(F)c(Cl)c12)C(=O)C1CC1 [Example 17, {4-Chloro-3-[2-{[(cydopropylcarbonyl)(ethyl)amino]methyl}-4-(trifluoromethyl)phenyl]-5-fluoro-1H-indazol-1-yl}acetic acid] | 10
CCN(Cc1cc(F)ccc1-c1nn(CC(=O)O)c2ccc(Cl)cc12)C(=O)OC(C)(C)C [Example 18, [3-(2-{[(tert-Butoxycarbonyl)(ethyl)amino]methyl}-4-fluorophenyl)-5-chloro-1H-indazol-1-yl]acetic acid] | 13
CCN(Cc1cc(F)ccc1-c1nn(CC(=O)O)c2ccc(Cl)cc12)C(=O)C1CCC1 [Example 19, [5-Chloro-3-(2-{[(cyclobutylcarbonyl)(ethyl)amino]methyl}-4-fluorophenyl)-1H-indazol-1-yl]acetic acid] | 7
CCN(Cc1cc(F)ccc1-c1nn(CC(=O)O)c2ccc(Cl)cc12)C(C)=O [Example 22] | 10
CCN(Cc1cc(C(F)(F)F)ccc1-c1nn(CC(=O)O)c2cccc(Cl)c12)C(=O)NCc1ccccc1 [Example 23, (3-[2-{[[(Benzylamino)carbonyl](ethyl)amino]methyl}-4-(trifluoromethyl)phenyl]-4-chloro-1H-indazol-1-yl}acetic acid] | 8
CCN(Cc1ccccc1-c1nn(CC(=O)O)c2ccc(Cl)cc12)C(=O)C1CC1 [Example 24] | 9
CCN(Cc1cc(C(F)(F)F)ccc1-c1nn(CC(=O)O)c2ccc(Cl)c(F)c12)C(=O)C1CC1 [Example 27] | 14
CCN(Cc1cc(C(F)(F)F)ccc1-n1cc(CC(=O)O)c2ccc(F)cc21)C(=O)C1CC1 [Example 30, {1-[2-[[(Cyclopropylcarbonyl)(ethyl)amino]methyl}-4-(trifluoromethyl)phenyl]-6-fluoro-1H-indol-3-yl}acetic acid] | 18
CCN(Cc1cc(C(F)(F)F)ccc1-c1cn(CC(=O)O)c2ccccc12)C(=O)C1CC1 [Example 31, (3-[2-[[(Cyclopropylcarbonyl)(ethyl)amino]methyl)-4-(trifluoromethyl)phenyl]-1H-indol-1-yl}acetic acid] | 19
CCN(Cc1cc(C(F)(F)F)ccc1-c1cn(CC(=O)O)c2ccc(F)cc12)C(=O)C1CC1 [Example 33] | 18
CCN(Cc1cc(F)ccc1-c1cn(CC(=O)O)c2ccccc12)C(=O)C1CC1 [Example 37, [3-(2-[[(Cyclopropylcarbonyl)(ethyl)amino]methyl}-4-fluorophenyl)-1H-indol-1-yl]acetic acid] | 11
CCN(Cc1cc(F)ccc1-c1cn(CC(=O)O)c2ccc(C(F)(F)F)cc12)C(=O)C1CC1 [Example 39, [3-(2-[[(Cyclopropylcarbonyl)(ethyl)amino]methyl}-4-fluorophenyl)-5-(trifluoromethyl)-1H-indol-1-yl]acetic acid] | 13
CCN(Cc1cc(C(F)(F)F)ccc1-c1cn(CC(=O)O)c2cccc(F)c12)C(=O)C1CC1 [Example 40, (3-[2-[[(Cyclopropylcarbonyl)(ethyl)amino]methyl}-4-(trifluoromethyl)phenyl]-4-fluoro-1H-indol-1-yl}acetic acid] | 3
CCN(Cc1cc(F)ccc1-c1cn(CC(=O)O)c2ccc(F)cc12)C(=O)C1CC1 [Example 42, [3-(2-([(Cyclopropylcarbonyl)(ethyl)amino]methyl}-4-fluorophenyl)-5-fluoro-1H-indol-1-yl]acetic acid] | 6
CCN(Cc1cc(C(F)(F)F)ccc1-c1cn(CC(=O)O)c2ccc(F)cc12)C(=O)NCc1ccccc1 [Example 43, {3-[2-{[[(Benzylamino)carbonyl](ethyl)aaino]methyl]-4-(trifluoromethyl)phenyl]-5-fluoro-1H-indol-1-yl}acetic acid] | 16
Cc1nnc(C2CC2)n1Cc1cc(C(F)(F)F)ccc1-c1cn(CC(=O)O)c2ccc(F)cc12 [Example 46, (3-[2-[(3-Cyclopropyl-5-methyl-4H-1,2,4-triazol-4-yl)methyl]-4-(trifluoromethyl)phenyl]-5-fluoro-1H-indol-1-yl}acetic acid] | 9
CCN(Cc1cc(C(F)(F)F)ccc1-c1cn(CC(=O)O)c2ccc(F)c(F)c12)C(=O)C1CC1 [Example 50, {3-[2-{[(Cyclopropylcarbonyl)(ethyl)amino]methyl)-4-(trifluoromethyl)phenyl]-4,5-difluoro-1H-indol-1-yl}acetic acid] | 16
CCN(Cc1cc(F)ccc1-c1cn(CC(=O)O)c2cccc(F)c12)C(=O)C1CC1 [Example 52, [3-(2-{[(Cyclopropylcarbonyl)(ethyl)amino]methyl}-4-fluorophenyl)-4-fluoro-1H-indol-1-yl]acetic acid] | 7
CCN(Cc1ccccc1-c1cn(CC(=O)O)c2ccc(F)cc12)C(=O)C1CC1 [Example 54, [3-(2-([(Cyclopropylcarbonyl)(ethyl)amino]methyl)phenyl)-5-fluoro-1H-indol-1-yl]acetic acid] | 4

Reference: EP2548863A1, “New CRTh2 antagonists” (Almirall, S.A., priority 2011, dated 2013)
